Legend:
Type in all cases: in vivo
[1] = test system: Benthamiana tobacco (Nicotiana benthamiana); experiment: Test Example 9: reduction of low-temperature stress in hydroponics of tobacco; settings: tobacco seedlings, medium with 0.1 ppm compound for 7 days; low-temperature stress 1.5±1.0° C. 7 days, then 3 days at 22° C.
Experimental: Evaluation Test for Reduction of Low-Temperature Stress in Hydroponics of Tobacco (Nicotiana benthamiana) Benthamiana tobacco (Nicotiana benthamiana) DMSO solutions containing each of the present compounds 1, 4 and 5 at a concentration of 100 ppm were prepared. […] These media were used in the treated-group. In a non-treated group, a medium obtained by adding a 1/1,000 volume of DMSO to a Murashige-and-Skoog medium at ½ concentration was used. The seeds of tobacco (Nicotiana benthamiana) were sown on 5 μL of the medium, and incubated at 22° C. overnight. Thereto was added 45 μL of a medium containing each present compound at a concentration of 0.1 ppm, and cultivated for 7 days under the conditions of an illuminance of 4,000 lux, a temperature of 22° C. and a day length of 16 hours, thereby treating the seedlings of tobacco (Nicotiana benthamiana) with the test compound. In the non-treated group, 45 μL of a medium obtained by adding a 1/1,000 volume of DMSO to a Murashige-and-Skoog medium at ½ concentration was added, and treated in the same manner as above. The seedlings of tobacco (Nicotiana benthamiana) treated with the present compounds were cultivated for 7 days under the conditions of an illuminance of 2,000 lux, a temperature of 1.5±1.0° C., and a day length of 16 hours, thereby subjecting to low-temperature stress treatment. The plants of tobacco (Nicotiana benthamiana) subjected to low-temperature stress treatment was cultivated for 3 days under the conditions of an illuminance of 4,000 lux, a temperature of 22° C., and a day length of 16 hours, and then the green leaf area of the plants was visually evaluated. Completely dead plant was scored as 0, the plant without low-temperature stress treatment was scored as 5, the green area was rated on a 6-point scale in ⅕ increments, and the score of not less than 1 was regarded as effective in reducing the stress. As a result of visual evaluation, the green leaf area of plants in the treated group, wherein the plants were treated with the present compound 1, 4 or 5 was much larger than that in the non-treated group.

[2] = test system: Rice (cultivar: Nipponbare); experiment: Test Example 1: promotion of root growth in hydroponics of rice; settings: 1 ppm, 3 days germination + 3 days cultivation, average of 4 or 5 individuals
Experimental: Evaluation Test for Promotion of Root Growth in Hydroponics of Rice Rice (cultivar: Nipponbare) A 1/10,000 volume of each DMSO solution containing each of the present compounds 1 to 4 at 10,000 ppm was added to a Hoagland solution for hydroponics (Hoagland and Amon, California Agricultural Experiment Station 1950 Circular 347 pp. 34) at ¼ concentration to obtain a solution for hydroponics containing each of the present compounds 1 to 4 at 1 ppm. These solutions were used in the treated-group. In a non-treated group, a solution for hydroponics obtained by adding a Hoagland solution for hydroponics at ¼ concentration to a 1/10,000 volume of DMSO was used. The rice seeds were immersed in an aqueous solution of 1% sodium hypochlorite for 10 minutes, followed by 70% ethanol solution to sterilize their surfaces. After that, the seeds were washed with distilled water. The sterilized seeds were immersed in each solution for hydroponics containing the test compound at 1 ppm, and incubated at a temperature of 28° C. for 3 days under dark conditions to stimulate the germination of the seeds. Then, 30 ml of each solution for hydroponics containing the test compound at 1 ppm was dispensed into a plastic tube (20 mm in diameter×113 mm in height) covered with a cardboard on the lateral surface for blocking a light. A float made of a styrene board and a vinyl mesh was placed on the water surface of each solution for hydroponics, and the rice seeds obtained after the stimulation of germination were placed on the float. The seeds were cultivated for 3 days under the conditions of an illuminance of 4,000 lux at the top of the tube, a temperature of 26° C., a humidity of 50%, and a day length of 16 hours. The root length of the rice seedlings obtained after the cultivation was measured by using WinRHIZO system (manufactured by REGENT INSTRUMENTS). The average value of the root length in the treated group was calculated from the measurement values of 4 or 5 individuals. As a result, the root length in the treated group, wherein the plants were treated with the present compound 1, 2, 3 or 4 (at a concentration of 1 ppm in each case), was much longer than that in the non-treated group.

[3] = test system: Rice (cultivar: Nipponbare); experiment: Test Example 8: promotion of root growth in hydroponics of rice; settings: 1 ppm, 3 days germination + 3 days cultivation, average of 4 or 5 individuals
Experimental: Evaluation Test for Promotion of Root Growth in Hydroponics of Rice Rice (cultivar: Nipponbare) A 1/10,000 volume of a DMSO solution containing the present compound 5 at 10,000 ppm was added to a Hoagland solution for hydroponics (Hoagland and Amon, California Agricultural Experiment Station 1950 Circular 347 pp. 34) at ¼ concentration to obtain a solution for hydroponics containing the present compound 5 at 1 ppm. The solution was used in the treated-group. In a non-treated group, a solution for hydroponics obtained by adding a Hoagland solution for hydroponics at ¼ concentration to a 1/10,000 volume of DMSO was used. The rice seeds were immersed in an aqueous solution of 1% sodium hypochlorite for 10 minutes, followed by 70% ethanol solution to sterilize their surfaces. After that, the seeds were washed with distilled water. The sterilized seeds were immersed in the solution for hydroponics containing the test compound at the given concentration, and incubated at a temperature of 28° C. for 3 days under dark conditions to stimulate the germination of the seeds. […] The root length of the rice seedlings obtained after the cultivation was measured by using WinRHIZO system (manufactured by REGENT INSTRUMENTS). The average value of the root length in the treated group was calculated from the measurement values of 4 or 5 individuals. […]

Row | Compound | green leaf area of plants (visual evaluation) vs non-treated group [1] | root length of the rice seedlings vs non-treated group [2] | root length of the rice seedlings vs non-treated group [3]
1 | COC(=O)c1cc2cccc(C(F)(F)F)c2s1 [compound 4] | much larger | much longer | 
2 | COC(=O)c1cc2c(C(F)(F)F)cccc2s1 [compound 3] |  | much longer | 
3 | COC(=O)c1cc2ccc(C(F)(F)F)cc2s1 [compound 2] |  | much longer | 
4 | CCOC(=O)c1cc2cc(C(F)(F)F)ccc2s1 [compound 5] | much larger |  | much longer

From patent US9119396B2, “Method for promoting plant growth” (SUMITOMO CHEMICAL COMPANY, LIMITED, priority 2011, dated 2015)
